Laboratory results reported in patent publication US20140309295A1, “ANTIEPILEPTIC, HYPOCHOLESTEROLEMIC AND NEUROPROTECTIVE COMPOUND” (NEURON BIOPHARMA, S.A., priority 2009, published 2014).

What was measured:
[1] = system: seladin-1/DHCR24 gene; assay: seladin-1/DHCR24 gene expression in SK-N-MC cells (real-time quantitative RT-PCR); format: cell-based, human; settings: 1, 4, 10 or 40 μM, 24 hours
Protocol: The assay was performed on human neuroblastoma SK-N-MC cells in culture from the American Type Culture Collection (ATCC), in all cases strict rules of sterility were followed and the manipulation was performed in class II biological safety cabinets following European standard EN 12469. The cells were maintained in the following culture medium: Minimum Essential Medium Eagle (MEM) supplemented with 1 mM sodium pyruvate, 2 mM L-glutamine, 0.1 mM non-essential amino acids, 0.05 mg/ml gentamicin and 10% fetal bovine serum.
The expression of the seladin-1/DHCR24 gene (NCBI Reference Sequence: NM_014762.3) was analyzed by means of real-time quantitative RT-PCR in comparison with memantine (a drug normally used to treat Alzheimer's disease). […] The total RNA was extracted by means of the High Pure RNA Isolation kit (Roche) and the amount and quality of the RNA were analyzed by means of spectrophotometry (Infinite 200 with NanoQuant, Tecan) and viewing of the 18S and 28S bands by means of electrophoresis. The RT-PCR was performed by means of two steps, first, the mRNA was changed to cDNA using the RNA to cDNA kit (Applied Biosystem) and the gene expression was subsequently analyzed by means of TaqMan probes using the validated probes Hs00207388_m1 for seladin-1/DHCR24 and Hs99999901_s1 for 18S (used to normalize the results) in the 7500 Fast Real-Time PCR System equipment (Applied Biosystem). […]

[2] = system: CD1 mice inoculated with MPTP (acute); assay: Acute MPTP model of Parkinson's disease in mice; format: in vivo
Protocol: (§1) All the animals included for the experimental process were 12-week old males of the CD1 strain. The experiments were conducted strictly following the Guidance on the Operation of Animals (Scientific Procedures, Act. 1986). The animals had their respective quarantine period and were treated with maximum precaution to minimize possible contaminations during inoculations and handling.
Forty animals were used in this assay and the treatments were conducted with a volume of 100 μl, according to the following regimens: • i) PBS+PBS+PBS regimen: 10 animals were initially treated with PBS with a daily dose for 2 days by subcutaneous (s.c.) route, on the second day the animals were inoculated with 4 doses of PBS, at intervals of 2 hours by intraperitoneal (i.p.) route. For the next 7 days they were administered a daily dose of PBS by s.c. route. • ii) PBS+MPTP+PBS regimen: 10 animals were initially treated with a daily dose for 2 days of PBS by s.c. route, on the second day the animals were inoculated with 4 doses of MPTP at 20 mg/Kg, at intervals of 2 hours by i.p. route. For the next 7 days they were administered a daily dose of PBS by s.c. route. • iii) NST0037+MPTP+NST0037 regimen: 10 animals were initially treated with a daily dose for 2 days of NST0037 at 50 mg/kg by s.c. route, on the second day the animals were inoculated with 4 doses of MPTP at 20 mg/Kg, at intervals of 2 hours by i.p. route. For the next 7 days they were administered a daily dose of NST0037 at 50 mg/kg by s.c. route.
Before starting the treatments and once the treatment time of 7 days ended, the animals were subjected to a locomotor resistance test referred to as the Rotarod test for 2 minutes, recording the time the animals resisted walking over a cylinder which increased its speed from 4 to 40 r.p.m.
Before starting the treatments and once the treatment time of 7 days ended, the animals were subjected to a strength test in the so-called Grip-strength test, recording the strength of gripping a bar in grams exerted by the animals with the front paws in triplicate.
(§2) Once the treatment time of 7 days ended, the animals were sacrificed and the brains were dissected. The brain samples were processed and included in paraffin. For the analysis of neurodegeneration in the substantia nigra and the striatum, fluorescent Fluoro Jade B (FJB) staining was performed in 5 μm thick sagittal sections.
as §2, with “the presence of dopaminergic neurons” for “neurodegeneration”, “the immunohistochemistry against the tyrosine-hydroxylase (TH) protein” for “fluorescent Fluoro Jade B (FJB) staining”

[3] = system: Zucker rats; assay: Hypolipidemic effect in genetically obese Zucker rats, oral 7 days; format: in vivo; settings: 30 mg/kg oral
Protocol: as §1, with “11 week-old male Zucker rats.” for “12-week old males of the CD1 strain.”, “for” for “during”
After a conditioning to the diet, 30 mg/kg of NST0021 or NST0037 were orally administered to the […] at the same time (15.00 to 18.00 h) for 7 consecutive days, using in both cases 0.5% carboxy methylcellulose in water as a vehicle. The control group received this same vehicle. Before starting the treatments and at 7 days therefrom, blood was extracted by lingual puncture under anesthesia after fasting for 16 hours. The plasma was obtained from said blood, in which the total cholesterol, HDL-c, LDL-c, VLDL-c, and triglyceride (TG) levels were evaluated by enzymatic and spectrophotometric techniques. In order to check if the effect at the lipid level involved an alteration of the oxidative stress, the redox state in the plasmas obtained was furthermore evaluated by means of the TEAC (Trolox Antioxidant Capacity Assay) technique. This technique determines the antioxidant capacity in vitro, giving an idea of the redox state of the sample analyzed by means of the absorbance capacity by electron transfer. The different components of the reaction, myoglobin, ABTS (2,2-azino-bis-(3-ethylbenzthiazoline-sulfonic acid) and hydrogen peroxide were added to the plasmas diluted 1/10 in PBS (10 μL) in a 96-well plate. After 3 minutes of incubation, the absorbance was measured at 405 nm (with a reference of 600 nm).

[4] = PAMPA, 18 h, 100 μM, pH 7.4
[5] = system: adult zebrafish; assay: Single-dose toxicity assay (24 hours exposure in water) in adult zebrafish; settings: 14 days post-treatment
[6] = NST0037+MPTP+NST0037, 50 mg/kg s.c., 7 days
[7] = NST0037+MPTP+NST0037 vs PBS+MPTP+PBS, 7 days

In the case of CCC(CC)C(=O)O[C@H]1C[C@@H](C)C=C2C=C[C@H](C)[C@H](CC[C@@H]3C[C@@H](O)CC(=O)O3)[C@H]21 [NST0037, (1S,2S,6R,8S,8aR)-1,2,6,7,8,8a-hexahydro-3,7-dimethyl-8-[2-[(2R,4R)-tetrahydro-4-hydroxy-6-oxo-2H-pyran-2-yl]ethyl]-1-naphthalenyl-2-ethyl-butyrate], the seladin-1/DHCR24 gene expression [1] is reported as “increase of seladin-1/DHCR24 gene expression”, the “motor resistance (Rotarod test)” value [2, 6] is reported as “prevents the motor deterioration of the animals” and the “strength (Grip-strength test)” value [2, 6] is reported as “prevents the loss of strength induced by MPTP”. The “survival after acute administration of MPTP” value ([2]; NST0037+MPTP+NST0037, 50 mg/kg s.c., MPTP 4 x 20 mg/Kg i.p.) was “promotes the survival of the animals”, the “dopaminergic neurons (tyrosine-hydroxylase) in substantia nigra and striatum” value [2, 7] was “larger number of TH-positive cells in the substantia nigra as well as a higher labeling intensity in the striatum” and the “neurodegeneration (Fluoro Jade B) in substantia nigra and striatum” value [2, 7] was “number of cells in degeneration and positive for FJB significantly lower”. For the same molecule, the HDL [3] was “increase of HDL”, the “oxidative stress (redox state in plasma, TEAC)” value [3] was “drastic reduction” and the plasma triglyceride levels [3] was “reduced the plasma triglyceride levels”. For the same molecule, the “plasma LDL levels” value ([3]; male Zucker rats) was “equally reducing the plasma LDL levels”, the “% BBB Passage” value [4] was 22.5 ± 5.5% and the “histopathology: intestine” value ([5]; 2000 mg/Kg) was “Atrophy signs in the intestinal villi”. For the same molecule, the “histopathology: liver” value ([5]; 2000 mg/Kg) was “discrete inflammation areas” and the “weight of the animals” value ([5]; 2000 mg/kg, 24 hours exposure in water) was “did not modify the weight”.
